Data published in PMC6270246, “Anthraquinones of the Roots of Pentas micrantha” (Molecules, 2012).
Where two headings read alike, the source gives them in different places.

Columns and labels:
[1] = Cytotoxicity assay (PrestoBlue cell viability, 48 h); type: cell-based; conditions: human, MCF-7 breast cancer cells, MCF-7 cells, mean of at least six independent experiments, read-out: CC50 (cytotoxic concentration)
Procedure: MCF-7 human breast cancer cells were cultured in Dulbecco’s modified eagle medium (DMEM) supplemented with 10% (v/v) fetal bovine serum, 2 mM L-glutamine, 100 units/mL penicillin and 100 µg/mL streptomycin at 37 °C in humidified 5% CO2. For cytotoxicity assays, cells were seeded in 96-well plates at optimal cell density to ensure exponential growth for the duration of the assay. After a 24-h preincubation growth, the medium was replaced with experimental medium containing the appropriate drug concentrations or vehicle controls (0.1% or 1.0% v/v DMSO). After 48 h incubation, cell viability was measured using PrestoBlue™ Cell Viability Reagent (Invitrogen Ab, Lidingö, Sweden) according to the manufacturer’s instructions. […] Results were expressed as the mean ± standard error for six replicates as a percentage of vehicle control (taken as 100%). Experiments were performed independently at least six times. Statistical analyses were performed using a two-tailed Student’s t-test. p < 0.05 was considered to be statistically significant.

[2] = system: Sierra Leone D6 chloroquine-sensitive Plasmodium falciparum strain; set-up: method as in PMID 21979929; conditions: P. falciparum D6 strain; in vitro; bioactivity previously published; cited from earlier work
[3] = system: Indochina W2 chloroquine-resistant Plasmodium falciparum strain; set-up: method as in PMID 21979929; conditions: P. falciparum W2 strain; in vitro; bioactivity previously published; cited from earlier work
[4] = system: MCF-7 human breast cancer cells; set-up: method as in PMID 21979929; conditions: MCF-7 cells; bioactivity previously published; read-out: CC50 (cytotoxic concentration); cited from earlier work
[5] = system: Sierra Leone D6 chloroquine-sensitive Plasmodium falciparum strain; assay: Malaria SYBR Green I-based in vitro drug susceptibility assay, D6 strain; type: cell-based
Procedure: (§1) For cytotoxicity (CC50) assay 1-isopropyl-3-(pyridin-4-ylethynyl)-1H-pyrazolo[3,4-d]pyrimidin-4-amine was used as reference substance.
(§2) Sierra Leone D6 chloroquine-sensitive and the Indochina W2 chloroquine-resistant Plasmodium falciparum strains (donated by the Walter Reed Army Institute for Research [WRAIR], 503 Robert Grant Avenue, Silver Spring, MD 20910, USA) were maintained in continuous culture to attain replication robustness prior to assays. Drug susceptibility was tested by the Malaria SYBR Green I-based in vitro assay technique.

[6] = system: Indochina W2 chloroquine-resistant Plasmodium falciparum strain; assay: Malaria SYBR Green I-based in vitro drug susceptibility assay, W2 strain; type: cell-based
Procedure: as §1, §2

| SMILES | IC50 [2] | IC50 [3] | CC50 [4] | also measured |
| --- | --- | --- | --- | --- |
| CC(C)n1nc(C#Cc2ccncc2)c2c(N)ncnc21 [1-isopropyl-3-(pyridin-4-ylethynyl)-1H-pyrazolo[3,4-d]pyrimidin-4-amine, reference compound] | – | – | – | CC50 at 48 h [1]: 5 µM |
| Cc1ccc2c(c1)C(=O)c1ccccc1C2=O [Compound 1, tectoquinone] | 30.36 ± 0.01 µM | 48.56 ± 0.01 µM | > 100 µM | – |
| COCc1c(O)cc2c(c1O)C(=O)c1ccccc1C2=O [Compound 2, lucidin-ω-methyl ether] | 42.54 ± 0.01 µM | 46.44 ± 0.01 µM | > 352 µM | – |
| COc1c(CO)c(O)cc2c1C(=O)c1ccccc1C2=O [Compound 3, damnacanthol] | 56.6 µM | 110.6 ± 0.01 µM | 238 µM | – |
| COc1c(C)c(O)cc2c1C(=O)c1ccccc1C2=O [Compound 4, rubiadin-1-methyl ether] | 45.07 ± 0.01 µM | 70.6 µM | 208 µM | – |
| Cc1c(O)cc2c(c1O)C(=O)c1ccccc1C2=O [Compound 5, rubiadin] | 21.5 µM | 31.91 ± 0.01 µM | 310 µM | – |
| COCc1c(O)cc2c(c1O)C(=O)c1ccc(O)c(O)c1C2=O [Compound 6, 1,3,5,6-tetrahydroxy-2-(methoxymethyl)-9,10-anthraquinone] | – | – | – | IC50 ([5]; P. falciparum D6 strain, in vitro, mean of at least 3 independent experiments, read-out: IC50 D6): 31.84 ± 0.01 µM; IC50 ([6]; P. falciparum W2 strain, in vitro, mean of at least 3 independent experiments, read-out: IC50 W2): 35.41 ± 0.01 µM; CC50 at 48 h [1]: 258 µM |
| COc1c(C=O)c(O)cc2c1C(=O)c1ccccc1C2=O [Compound 7, damnacanthal] | 27.2 µM | 38.6 µM | 316 µM | – |
| COc1c(CO)c(O)cc2c1C(=O)c1ccc(O)c(O)c1C2=O [Compound 8, 5,6-dihydroxydamnacanthol] | 47.53 ± 0.01 µM | 61.17 ± 0.02 µM | > 450 µM | – |
| CCN(CC)CCCC(C)Nc1ccnc2cc(Cl)ccc12 (centres unmarked) [chloroquine] | – | – | – | IC50 ([5]; D6, read-out: IC50 (D6)): 0.0147 µM; IC50 ([6]; W2, read-out: IC50 (W2)): 0.522 µM |
| OC(c1cc(C(F)(F)F)nc2c(C(F)(F)F)cccc12)C1CCCCN1 (centres unmarked) [mefloquine] | – | – | – | IC50 ([5]; P. falciparum D6 strain, positive controls, read-out: IC50 (D6)): 0.0876 µM; IC50 ([6]; P. falciparum W2 strain, positive controls, read-out: IC50 (W2)): 0.00665 µM |
